According to US6569404B1, “Phase shift colloids as ultrasound contrast agents” (priority 1993, dated 2003):
Where “and” joins values, the source holds several entries; their conditions need not be identical. Identical values can stand only once. Like-named read-outs stand apart in the source and are kept apart here.

What was measured:
[1] = Backscatter persistence and intensity of 2% mixtures in saline, 1000 mL water at 37° C., Hewlett-Packard 77020A; conditions: for Ratio of Persistence: 2% in saline, saline+air set as 1; for Ratio of Intensity: backscatter intensity qualitatively ranked from 0 to 5
Procedure: The following emulsions were formulated and tested according to methods described in Example 18.
All solutions were made as a 2% solution in saline. A volume of 0.1 cc of each chemical was comminuted with 5 cc saline through a 3-way stopcock for 25 passes. A volume of 1.0 mL of the mixture was immediately injected through a 1.2 μm filter into a stirring water bath containing 1000 mL water at 37° C. The resulting backscatter was then recorded with the use of a Hewlett-Packard 77020A Ultrasound System at […].

[2] = cited from earlier work; for B.P.: chemicals of Example 52
[3] = at 25° C.; cited from earlier work
[4] = Emulsion stability versus relative HLB of Pluronic L61/F68 mixtures; assay type: physicochemical; conditions: from stability of emulsions
Excerpt: The relative hydrophilic-lipophilic balance (HLB) is a method of optimizing a nonionic surfactant solution to achieve greatest stability. It is described in detail in Emulsions: Theory and Practice, Paul Becher, 1965, Robert E. Krieger Publishing Company Malabar, Fla., and references contained therein, and is incorporated here by reference. Solutions of Pluronic L61 (HLB 3.0) and F68 (HLB 29) were mixed to achieve intermediate HLB values by the following formula:
HLB=fL61 {HLB of L61}+ff68 {HLB of F68} The actual solutions, the calculated HLB values, and the stability of the final formulation (a 2% v/v emulsion of dodecafluorohexane) are contained in the following table: […]

[5] = Acoustic backscatter: gray scale intensity (videodensity) in water beaker at 37° C., Hewlett Packard 77020 scanner, 5.0 MHz
Procedure: Two solutions were prepared to simulate the administration to an organism of either a colloidal dispersion of a low boiling liquid or the liquid, neat.
The emulsions contained Fluorad 170 C as surfactant and were formed by applying acoustic energy from a waterbath sonicator.

[6] = Interfacial tension against dodecafluoropentane at 4° C., Kruss Drop Volume Tensiometer DVT-10; assay type: physicochemical; conditions: from graph of IFT versus HLB
Procedure: Mixtures of Pluronic P-123 and Pluronic F-127 were formed, yielding a 1% solution, v/v, with graded HLB numbers and the interfacial tension (IFT) of the solutions against dodecafluoropentane determined at 4° C., using a Kruss Drop Volume Tensiometer DVT-10, Kruss USA, Charlotte, N.C. The results are contained in the following table:
Interfacial tensions of various amphiphilic materials in aqueous solutions (all expressed as v/v solutions) against dodecafluoropentane were measured at 4° C. and emulsions created from each formulation, as described in Example 13.

[7] = In vitro ultrasound backscatter / echogenicity of formulations (qualitative); conditions: in words
dogs = conditions: Ziskin et al. 1972, cited from earlier work
[8] = Expected change in dispersion size from liquid and gas densities; conditions: calculated from cubic root of volume
Procedure: One can also calculate the expected change in dispersion size if one knows the relative densities of the dispersed liquid as a gas and liquid. For example, the Gas Data Book, by W Braker and A Mossman, Matheson, contains such data. Examining octafluorocyclobutane, one finds that 1 L of the liquid yields 188 L of gas at a pressure of 760 mm Hg and 15° C. Since the volume of a sphere is related to the diameter of a sphere by the cubic root of the volume, the phase transition for an octafluorobutane emulsion particle will cause a 5.7-fold increase in diameter.

[9] = 760 mm Hg and 15° C.; Gas Data Book; cited from earlier work
[10] = 1.0 mL in 1000 mL water at 37° C.
[11] = dispersed phase of emulsions of Example 18
[12] = Chemical List of low boiling liquids, Example 45
[13] = boiling point under standard pressure conditions, chemical list arranged by total atoms
[14] = emulsion with Fluorad 170 C, 0.2 mL in 1000 mL water at 37° C., six seconds, backgrounds 2.9, 3.0, 3.6

| SMILES | Boiling Point [2, 12] | Boiling Point [2, 13] | further results |
| --- | --- | --- | --- |
| ClCCCl [1,2, Dichloroethane, reference compound] |  |  | Ratio of Persistence [1, 10]: 6; Ratio of Intensity [1]: 0.25; B.P. [2]: 83 °C; Vapor Pressure [3]: 87 mmHg at 25 °C |
| FC(F)(F)C(Cl)Br (centres unmarked) [Halothane] |  |  | Ratio of Persistence [1, 10]: 6; Ratio of Intensity [1]: 0.25; B.P. [2]: 50 °C |
| CCCCCCCCC [Nonane] |  |  | Ratio of Persistence [1, 10]: 9; Ratio of Intensity [1]: 0.5; B.P. [2]: 151 °C |
| FC1(F)C(F)(F)C(F)(F)C2(F)C(F)(F)C(F)(F)C(F)(F)C(F)(F)C2(F)C1(F)F (centres unmarked) [Perfluorodecalin] |  |  | Ratio of Persistence [1, 10]: 9; Ratio of Intensity [1]: 2.0; B.P. [2]: 141 °C |
| FC(F)(F)C(F)(F)C(F)(F)C(F)(F)C(F)(F)C(F)(F)F [Perfluorohexane, reference compound] |  |  | relative HLB established [4]: 6-8; Boiling Point [2, 11]: 59 °C |
| O=[N+]([O-])C(F)(F)C(F)(F)C(F)(F)F [Propane, heptafluoro-1-nitro] | 25.0 degrees Celcius |  |  |
| O=NC(F)(F)C(F)(F)C(F)(F)F [Propane, heptafluoro-1-nitrose] | −12.0 degrees Celcius |  |  |
| FC(F)(F)C(F)(F)C(F)(F)F [Propane, perfluoro] | −36.0 degrees Celcius |  |  |
| FC(F)=C(F)C(F)(F)F [Propylene, perfluoro] | −29.4 degrees Celcius |  |  |
| C#CC [Propyne] | −23.2 degrees Celcius |  |  |
| F[C](F)(F)[Ge]([C](F)(F)F)([C](F)(F)F)[C](F)(F)F [Tetrakis(trifluoromethyl) germane] |  | 31.7 degrees Celcius |  |
| N#CC(F)(F)F [Trifluoroacetonitrile] | −64.0 degrees Celcius |  |  |
| FC(F)(F)SC(F)(F)F [Trifluoromethyl sulfide] | −22.2 degrees Celcius |  |  |
| CN(C)C [Trimethyl amine] | 2.9 degrees Celcius |  |  |
| F[C](F)(F)[Ge]([Cl])([C](F)(F)F)[C](F)(F)F [Tris-(trifluoromethyl)-germaniumchloride] |  | 37 degrees Celcius |  |
| [F][W]([F])([F])([F])([F])[F] [Tungsten hexafluoride] | 17.5 degrees Celcius |  |  |
| C#CC=C [Vinyl acetylene] | 5.1 degrees Celcius |  |  |
| C=COC=C [Vinyl ether] | 28.0 degrees Celcius |  |  |
| [Xe] [Xenon] | −108.0 degrees Celcius |  |  |
| CP(C)NP(C)C [bis(Dimethyl phosphino) amine] | 33.5 degrees Celcius |  |  |
| O=C(C(F)(F)F)C(F)(F)Br [bromo-pentafluoro-acetone] |  | 31 degrees Celcius |  |

| SMILES | Boiling Point [2, 12] | Boiling Point [2, 13] | further results |
| --- | --- | --- | --- |
| CCCCB(F)F [butyl-difluoro-borane] |  | 35 degrees Celcius |  |
| FC(F)(F)C(F)(F)C(F)(F)C(F)(F)F [decafluoro-butane] |  | −1.7 degrees Celcius |  |
| FC(F)I [difluoro-iodo-methane] |  | 21.6 degrees Celcius |  |
| CSC [dimethyl sulfide] |  | 36 degrees Celcius |  |
| FC(F)(F)C(F)(F)C(F)(F)C(F)(F)C(F)(F)F [dodecafluoropentane] | 30.5 degrees Celcius |  | grayscale intensity [5, 14]: 58.5 units; grayscale intensity ([5]; fifty-two seconds post-injection into 1000 mL water at 37° C., gray scale of 2 to 254): 5.0; grayscale intensity ([5]; five seconds post-injection into 1000 mL water at 37° C., gray scale of 2 to 254, 0.1 mL emulsion (before 4.27) or 0.2 mL neat liquid (before 4.9)): 7.7; HLB for the dispersed phase liquid [6]: about 14; time over which backscatter diminished [1, 10]: 4 to 5 min; Ratio of Persistence [1, 10]: 24; Ratio of Intensity [1]: 5; Ratio of Intensity ([1]; listed as Dodecafluoropentane): 5.0; B.P. [2]: 29 °C; Boiling Point [2]: 28-29 °C; Boiling Point [2, 11]: 29 °C; Vapor Pressure [3]: 646 mmHg at 25 °C |
| CCOCC [ether, diethyl ether] | 34.5 degrees Celcius |  | in vitro ultrasound backscatter characteristics [7]: useful contrast signal; lethality (dogs; injections of 20 mL): proved fatal; contrast effect (Doppler signal) (dogs; intraarterial): greatest contrast effect of any agent that we tried |
| CCC1CC1 [ethyl-cyclopropane] |  | 35.8 degrees Celcius |  |
| CCN(C)C [ethyl-dimethyl-amine] |  | 36.4 degrees Celcius |  |
| CCOC [ethyl-methyl ether] |  | 6.6 degrees Celcius |  |
| CC[Si](F)(F)F [ethyl-trifluoro-silane] |  | −4.4 degrees Celcius |  |
| C=COCC [ethyl-vinyl ether] |  | 35 degrees Celcius |  |
| NC=O [formamide] |  | 2.18 degrees Celcius |  |
| CC(C)N [isopropylamine] |  | 31.7 degrees Celcius |  |
| CC1CCC1 [methyl-cyclobutane] |  | 36 degrees Celcius |  |
| CC1CC1 [methyl-cyclopropane] |  | 0.7 degrees Celcius |  |
| FC(F)(F)C(F)(F)C(F)(C(F)(F)F)C(F)(F)F [nonafluoro-2-trifluoromethyl-butane] |  | 30.12 degrees Celcius |  |
| FC1(F)C(F)(F)C(F)(F)C1(F)F [octafluorocyclobutane] |  |  | increase in diameter of emulsion particle on phase transition [8]: 5.7 fold; volume of gas from 1 L of the liquid [9]: 188 L |
| FC1(F)C(F)(F)C(F)(F)C(F)(F)C1(F)F [perfluorocyclopentane] |  |  | grayscale intensity [5, 14]: 158.9 units; Boiling Point [2]: 22.5 °C and 22 °C |
| C1CC12CC2 [spiropentane] |  | 35 degrees Celcius |  |
| CCC[Si](F)(F)F [trifluoro-propyl-silane] |  | 25 degrees Celcius |  |
